Test results: paper PMC8747000, “Synthesis, Pharmacological Evaluation, and Computational Studies of Cyclic Opioid Peptidomimetics Containing β^3-Lysine” (Molecules, 2021)
Read-outs that look alike come from different tables or passages of the source. Peptide text beside a SMILES is read from it.

Tests used:
[1] = compared with EM-2; cited from earlier work
Description: Endomorphins are very short peptides lacking reactive side chain groups, which makes their cyclization difficult. […] In order to obtain cyclic analogs based on the structure of EM-2 but still to preserve the free N-terminal amino group, we introduced into the sequence of EM-2 additional amino acids with functionalized side chains. A pentapeptide analog Tyr-c[D-Lys-Phe-Phe-Asp]NH2 (designated RP-170), ...

MOR [2] = target: T1, MOR (Homo sapiens, UniProt P35372); assay: Opioid receptor binding assay, competitive displacement of [3H]DAMGO; parameters: purchased PerkinElmer; host or cells: CHO cells
Protocol: (§1) The binding affinities of cyclopeptides RP-171 and RP-172 toward MOR, DOR, and KOR were determined by competitive binding against [^3H]DAMGO, [^3H][D-Ala^2]deltorphin-2, and U-69593, respectively, using membranes of CHO cells transfected with opioid receptors and are summarized in Table 1.
(§2) The opioid receptor binding assays were performed according to the described method, using commercial membranes of Chinese Hamster Ovary (CHO) cells transfected with human opioid receptors. The binding affinities for MOR, DOR, and KOR were determined by radioligand competition analysis using [^3H]DAMGO, [^3H]deltorphin-2, and [^3H]U-69593, respectively, as specific radioligands, respectively. Membrane preparations were incubated at 25 °C for 120 min with appropriate concentrations of a tested peptide in the presence of 0.5 nM radioligand in a total volume of 0.5 ml of 50 mM Tris/HCl (pH 7.4) containing bovine serum albumin (BSA) (1 mg/mL), bacitracin (50 µg/mL), bestatin (30 µM), and captopril (10 µM). Non-specific binding was determined in the presence of 1 µM naloxone. Incubations were terminated by the rapid filtration through the GF/B Whatman (Brentford, UK) glass fiber strips (pre-soaked for 2 h in 0.5% (v/v) polyethylamine) using Millipore Sampling Manifold (Billerica, MA, USA). The filters were washed three times with 4 ml of ice-cold Tris buffer solution. The bound radioactivity was measured in a Packard Tri-Carb 2100 TR liquid scintillation counter (Ramsey, MN, USA) after overnight extraction of the filters in 4 mL of a Perkin Elmer Ultima Gold scintillation fluid (Wellesley, MA, USA). Three independent experiments for each assay were carried out in duplicate. The data were analyzed by a nonlinear least square regression analysis computer program Graph Pad PRISM 6.0 (Graph Pad Software Inc., San Diego, CA, USA). The IC50 values were determined from the logarithmic concentration–displacement curves, and the values of the inhibitory constants (Ki) were calculated according to the equation of Cheng and Prusoff.

DOR [3] = target: T2, DOR (Homo sapiens, UniProt P41143); assay: Opioid receptor binding assay, competitive displacement of [3H]deltorphin-2; parameters: purchased PerkinElmer; host or cells: CHO cells
Protocol: as §1, §2

KOR [4] = target: T3, KOR (Homo sapiens, UniProt P41145); assay: Opioid receptor binding assay, competitive displacement of [3H]U-69593; parameters: purchased PerkinElmer; host or cells: CHO cells
Protocol: as §1, §2

MOR [5] = target: T1, MOR; assay: Calcium mobilization assay, CHO-MOR cells; assay type: cell-based; parameters: expressed in transfected cells; host or cells: CHO cells (gift from Prof. Girolamo Calo, University of Padova); settings: for MOR α ± SEM (intrinsic activity): Emax ratio of tested compound and standard agonist dermorphin, CHO cells co-expressing human MOR and Gαqi5
DOR [6] = target: T2, DOR; assay: Calcium mobilization assay, CHO-DOR cells; assay type: cell-based; parameters: expressed in transfected cells; host or cells: CHO cells (gift from Prof. Girolamo Calo, University of Padova); settings: n ≥ 3; for DOR pEC50 (CL95%): CHO cells co-expressing human recombinant DOR and GαqG66Di5, Fluo-4 AM fluorescence, FlexStation II; for DOR α ± SEM (intrinsic activity): Emax ratio of tested compound and standard agonist DPDPE, CHO cells co-expressing human DOR and GαqG66Di5
KOR [7] = target: T3, KOR; assay: Calcium mobilization assay, CHO-KOR cells; assay type: cell-based; parameters: expressed in transfected cells; host or cells: CHO cells (gift from Prof. Girolamo Calo, University of Padova); settings: for KOR α ± SEM (intrinsic activity): Emax ratio of tested compound and standard agonist dynorphin A, CHO cells co-expressing human KOR and Gαqi5
[8] = Reversed-phase HPLC retention (chromatographic behavior as indication of lipophilicity); assay type: physicochemical; settings: RP-HPLC, Vydac C18 column (5 μm, 4.6 x 250 mm); A 0.1% TFA in water, B 80% acetonitrile in water with 0.1% TFA; linear gradient 0–100% B over 50 min; 1 mL/min; uncalibrated retention time
Description: During the routine LC-MS analysis of analogs RP-171 and RP-172, we noticed a distinct difference in retention times and MS^n patterns for these diastereoisomeric peptides. To confirm our observation, we subjected a mixture of these peptides to LC-MS and MS^n experiments. […] It is interesting that the elution order from the biphenyl column was the same as from the C18 column.
All protected α-amino acids were purchased from Bachem A (Bubendorf, Switzerland). Opioid radioligands, [^3H]DAMGO, [^3H]deltorphin-2, and [^3H]U-69593, and human recombinant opioid receptors were purchased from PerkinElmer (Krakow, Poland). GF/B glass fiber strips were obtained from Whatman (Brentford, UK). Purity of peptides was determined by RP-HPLC and exact mass. Analytical and semi-preparative RP-HPLC was performed using Waters Breeze instrument (Milford, MA, USA) with dual absorbance detector (Waters 2487, MA, USA). […] For LC-MS experiments, Aeris Peptide C18 and Kinetex Biphenyl (Phenomenex, Torrance, CA, USA) were used, in a gradient reversed-phase mode, from 5 to 80% acetonitrile in water (both containing 0.1% HCOOH). ^1H NMR spectra were recorded on a 500 MHz Brucker instrument in DMSO-d6, using residual DMSO as a resonance reference at 2.5 ppm. […]

[9] = membranes of CHO cells transfected with human opioid receptors, 0.5 nM [3H]DAMGO, 25 °C, 120 min, 50 mM Tris/HCl pH 7.4, Cheng-Prusoff, mean ± SEM, n = 3, read-out: Ki MOR
[10] = membranes of CHO cells transfected with human opioid receptors, 0.5 nM [3H]deltorphin-2, 25 °C, 120 min, 50 mM Tris/HCl pH 7.4, Cheng-Prusoff, mean ± SEM, n = 3, read-out: Ki DOR
[11] = CHO cells co-expressing human recombinant MOR and Gαqi5, Fluo-4 AM fluorescence, FlexStation II, n ≥ 3, read-out: MOR pEC50 (CL95%) (converted)

Row | SMILES | stability in the rat brain homogenate [1] | Ki (MOR [2]; SEM) | Ki (DOR [3]; SEM) | Ki (KOR [4]; SEM) | EC50 (MOR [5]) | DOR pEC50 (CL95%) (DOR [6]) | DOR α ± SEM (intrinsic activity) (DOR [6]) | EC50 (KOR [7]) | HPLC tR [8] | Ki (MOR [2]; [9]) | Ki (DOR [3]; [10]) | Ki (KOR [4]; membranes of CHO cells transfected with human opioid receptors, 0.5 nM [3H]U-69593, 25 °C, 120 min, 50 mM Tris/HCl pH 7.4, Cheng-Prusoff, mean ± SEM, n = 3, SEM, read-out: Ki KOR) | loss of affinity for KOR as compared with the parent RP-170 (KOR [4]; ratio of Ki values versus RP-170) | EC50 (MOR [5]; [11]) | MOR α ± SEM (intrinsic activity) (MOR [5]; n ≥ 3) | EC50 (KOR [7]; CHO cells co-expressing human recombinant KOR and Gαqi5, Fluo-4 AM fluorescence, FlexStation II, n ≥ 3, read-out: KOR pEC50 (CL95%) (converted)) | KOR α ± SEM (intrinsic activity) (KOR [7]; n ≥ 3) | KOR α ± SEM (intrinsic activity) (KOR [7]; n ≥ 3, SEM) | Ki (KOR [4]; membranes of CHO cells transfected with human opioid receptors, 0.5 nM [3H]U-69593, 25 °C, 120 min, 50 mM Tris/HCl pH 7.4, Cheng-Prusoff, mean ± SEM, n = 3, read-out: Ki KOR) | KOR pEC50 (CL95%) (KOR [7]; CHO cells co-expressing human recombinant KOR and Gαqi5, Fluo-4 AM fluorescence, FlexStation II, n ≥ 3)
1 | NC(=O)[C@@H]1CC(=O)NCCCC[C@@H](NC(=O)[C@@H](N)Cc2ccc(O)cc2)C(=O)N[C@@H](Cc2ccccc2)C(=O)N[C@@H](Cc2ccccc2)C(=O)N1 [RP-170, Tyr-c[D-Lys-Phe-Phe-Asp]NH2] (HELM PEPTIDE1{Y.[dK].F.F.D.[am]}$PEPTIDE1,PEPTIDE1,2:R3-5:R3$$$V2.0) | much more stable than EM-2 | 0.55 ± 0.02 nM | 198 ± 4.5 nM | 1.52 ± 0.2 nM | 1.17 nM | inactive | inactive | 2.51 nM | – | – | – | – | – | – | – | – | – | – | – | –
2 | NC(=O)[C@@H]1CC(=O)NCCC[C@@H](NC(=O)[C@@H](N)Cc2ccc(O)cc2)CC(=O)N[C@@H](Cc2ccccc2)C(=O)N[C@@H](Cc2ccccc2)C(=O)N1 [RP-171, Tyr-c[(R)-β^3-Lys-Phe-Phe-Asp]NH2] | – | – | – | – | – | inactive | inactive | – | 14.05 min | 29 ± 4.32 nM | > 1000 nM | 420 ± 23 nM | 276 fold | 135 nM | 0.82 ± 0.02 | 1020 nM | 0.82 | 0.82 ± 0.05 | – | –
3 | NC(=O)[C@@H]1CC(=O)NCCC[C@H](NC(=O)[C@@H](N)Cc2ccc(O)cc2)CC(=O)N[C@@H](Cc2ccccc2)C(=O)N[C@@H](Cc2ccccc2)C(=O)N1 [RP-172, Tyr-c[(S)-β^3-Lys-Phe-Phe-Asp]NH2] | – | – | – | – | – | inactive | inactive | – | 14.36 min | 950 ± 45 nM | > 1000 nM | – | – | 3550 nM | 0.45 ± 0.02 | – | inactive | – | > 1000 nM | inactive
